Test results reported in publication PMC4122355, “Inhibitor of the Tyrosine Phosphatase STEP Reverses Cognitive Deficits in a Mouse Model of Alzheimer's Disease” (PLoS Biology, 2014).

Tests used:
3xTg-AD and WT mice [1] = test: Y-maze alternation task; format: in vivo, mouse; settings: 10 mg/kg i.p. 3 h prior
Protocol: The Y-maze apparatus consisted of three dark gray arms (42×4.8×20 cm). […] The total number of arm entries was recorded, as was the number of entries representing alternation behavior (i.e., sequential entry into all three arms). All four paws of the mouse had to enter an arm for it to count as an arm entry. Percentage spontaneous alternation = (number of alternations)/(total arm entries – 2). […] A total number of 20 WT and 11 AD mice were used in the Y-maze task.

[2] = test system: GluN2B (Y1472), Pyk2 (Y402), ERK1/2 (Y204/187) in cortical neurons; test: Tyr phosphorylation of STEP substrates in cortical neuronal cultures (Western blot); format: cell-based, rat; settings: 1 µM dose, 1 h, relative to vehicle
Protocol: (§1) Primary cortical neurons were isolated from Sprague Dawley rat embryos (E18) (Charles River Laboratories, Wilmington, MA) as previously described. In some experiments, cortical neurons were made from WT and STEP KO mouse embryos (E18). Neurons were allowed to grow for 18–21 d in CO2 incubator before addition of compounds at indicated doses for 1 h. Immediately following treatments, neurons were lysed in RadioImmuno Precipitation Assay (RIPA) buffer supplied with protease inhibitor cocktail (Roche Applied Science, Indianapolis, IN) and phosphatase inhibitors (NaF and Na3VO4). All experiments were replicated four times with four independent batches of cultures.
(§2) Samples were prepared and resolved by SDS-PAGE, transferred to nitrocellulose membrane, and incubated with phospho-specific antibodies (anti-pY^204/187 ERK1/2, anti-pY^402 Pyk2, anti-pY^1472 GluN2B) or total protein antibodies (anti-ERK2, anti-Pyk2, and anti-NR2B) overnight at 4°C. Immunoreactivity was visualized using a Chemiluminescent substrate kit (Pierce Biotechnology, Rockford, IL) and detected using a G:BOX with the image program GeneSnap (Syngene, Cambridge, UK). All densitometric quantifications were performed using the Genetools program.

[3] = test system: GluN2B Y1472, Pyk2 Y402, ERK1/2 Y204/187 in WT and STEP KO cortical neurons; test: Tyr phosphorylation of STEP substrates in WT and STEP KO mouse cortical cultures; format: cell-based; settings: 1 h
Protocol: as §1, §2

3xTg-AD and WT mice [4] = test: Morris water maze (MWM), reference memory version; format: in vivo, mouse
Protocol: The reference memory version of the MWM task was performed as described previously. A crossover design was not used in the MWM task, as the mice were randomly assigned to each treatment condition and can be exposed to the task only once. Briefly, animals were trained to swim in a 1.4 m diameter pool to find a submerged platform (14 cm in diameter) located 1 cm below the surface of water (24°C), rendered opaque by the addition of nontoxic white paint. Animals were pseudo-randomly started from a different position at each trial and used distal visual-spatial cues to find the hidden escape platform that remained in the center of the same quadrant throughout all training days. Training measures included escape latency to reach the platform, swim speed, and thigmotaxis. […] At 24 h after the acquisition phase, the platform was removed and a probe trial of 90 s was given to evaluate the number of entries in a circular zone (three times the platform diameter) positioned around the previous platform location (target zone) and in the opposite quadrants. To assess visual deficits and motivation to escape from water, the probe test was followed by a cued task (60 s; three trials per animal) during which the platform was visible. The visible platform was moved to different locations between each trial. After each trial, animals were immediately placed under a warming lamp to dry to prevent hypothermia. […] Behavioral data from training, probe, and cued trials were acquired and analyzed using the ANY-maze automated tracking system (Stoelting, IL, USA).

HePTP = molecular target: T1, HePTP (Homo sapiens, UniProt P35236); test: Selectivity pNPP assay, full-length PTPs: HePTP; format: biochemical; settings: full-length PTP, 10 nM, 500 µM pNPP
T1 construct: Full-length HePTP and PTP-SL proteins were purchased from Abnova; purchased Abnova (Taipei, Taiwan)
T1 sequence (P35236 1-360): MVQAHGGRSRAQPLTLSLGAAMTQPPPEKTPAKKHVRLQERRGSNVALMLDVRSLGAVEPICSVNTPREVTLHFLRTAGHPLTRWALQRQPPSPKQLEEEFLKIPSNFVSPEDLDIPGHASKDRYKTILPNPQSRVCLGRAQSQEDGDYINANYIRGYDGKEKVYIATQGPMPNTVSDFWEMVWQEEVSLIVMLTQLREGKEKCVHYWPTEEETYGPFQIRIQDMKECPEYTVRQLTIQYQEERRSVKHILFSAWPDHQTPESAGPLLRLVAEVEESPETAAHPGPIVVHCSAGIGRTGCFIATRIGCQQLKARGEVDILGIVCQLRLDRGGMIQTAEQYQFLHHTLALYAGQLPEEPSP
From the text: (§3) Constructs were transformed into BL21 (DE3) E. coli cells. Fusion proteins were purified on a glutathione sepharose column.

PTP1B = molecular target: T2, PTP1B (Homo sapiens, UniProt P18031); test: Selectivity pNPP assay, full-length PTPs: PTP1B; format: biochemical; settings: full-length PTP, 10 nM, 500 µM pNPP
T2 construct: GST (N); host or cells: E. coli BL21 (DE3)
T2 sequence (P18031 1-435): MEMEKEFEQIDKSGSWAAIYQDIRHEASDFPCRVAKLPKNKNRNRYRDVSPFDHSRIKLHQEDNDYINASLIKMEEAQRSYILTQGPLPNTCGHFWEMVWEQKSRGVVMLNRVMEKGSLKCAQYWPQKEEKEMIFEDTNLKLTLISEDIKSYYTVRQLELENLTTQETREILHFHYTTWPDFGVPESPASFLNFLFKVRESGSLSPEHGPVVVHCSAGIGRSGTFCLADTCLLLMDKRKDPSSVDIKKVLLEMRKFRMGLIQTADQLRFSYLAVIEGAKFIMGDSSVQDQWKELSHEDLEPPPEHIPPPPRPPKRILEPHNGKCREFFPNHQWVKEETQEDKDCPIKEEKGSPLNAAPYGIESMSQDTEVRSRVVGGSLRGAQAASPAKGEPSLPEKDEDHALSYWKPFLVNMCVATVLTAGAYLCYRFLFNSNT
From the text: as §3

For `Cl.Nc1cc(C(F)(F)F)cc2c1SSSSS2` [TC-2153, 8-(trifluoromethyl)-1,2,3,4,5-benzopentathiepin-6-amine hydrochloride], the “Y-maze arm entries (general motor activity)” value (3xTg-AD and WT mice [1]) was “no significant change in arm entries”, the “Y-maze percentage spontaneous alternation, WT mice” value (3xTg-AD and WT mice [1]; WT mice, vehicle 74.98±2.19) was 73.45±3.19 and the “pERK1/2 (Y204/187), phospho-signal normalized to total protein and GAPDH” value [2] was 2.39±0.18. For the same molecule, the “pGluN2B (Y1472), phospho-signal normalized to total protein and GAPDH” value [2] was 2.07±0.15, the “pPyk2 (Y402), phospho-signal normalized to total protein and GAPDH” value [2] was 1.81±0.21 and the “Tyr phosphorylation of STEP substrates in STEP KO cortical cultures” value ([3]; STEP KO cultures, TC-2153 0.1 and 1 µM, Na3VO4 1 mM) was “failed to increase the phosphorylation of STEP substrates”. For the same molecule, the “Tyr phosphorylation of STEP substrates in WT mouse cortical neurons” value ([3]; WT cultures, 0.1 and 1 µM) was “an increase in the Tyr phosphorylation of STEP substrates”, the “MWM probe trial, target zone” value (3xTg-AD and WT mice [4]; 3xTg-AD mice, 24 h after last acquisition day) was “spent as much time as WT mice in the target zone” and the “MWM acquisition phase escape latency” value (3xTg-AD and WT mice [4]; 3xTg-AD mice, daily injection 3 h prior to training, days 5 and 6) was “reversed memory deficits”. The “MWM cued trial escape latency, AD mice” value (3xTg-AD and WT mice [4]; AD-TC, visible platform, AD-Veh 15.3±3.0) was 16.0 ± 2.3 s, the “MWM cued trial escape latency, WT mice” value (3xTg-AD and WT mice [4]; WT-TC, visible platform, WT-Veh 15.1±1.7) was 15.6 ± 1.7 s and the IC50 (HePTP) was 363.5 ± 1.2 nM. The IC50 (PTP1B) was 723.9 ± 1.2 nM.
